Measurements from patent publication US12709622B2, “Conjugates for selective responsiveness to vicinal diols” (PROTOMER TECHNOLOGIES, INC., priority 2020, dated 2026).

Assays:
Details in all cases: for Kd: ARS displacement, 0.1M phosphate buffer, pH 7.4, 25° C.
[1] = Alizarin Red S (ARS) displacement assay, binding to glucose
Procedure: (§1) The association constant for the binding event between Alizarin Red S (ARS) and the compounds of each of examples 1-24 was determined using standard methods in the art. Triplicate titrations of 10^-5 M ARS in 0.1M phosphate buffer, pH 7.4, were performed in a 96-well plate against serial dilutions of example compounds, ranging in concentration from 0-0.1M at 25° C. The example compound-ARS solution was incubated for 5-45 minutes at 25° C., and absorbance intensity was measured using excitation wavelength 468 nm and emission wavelength 585 nm. Changes in intensity were plotted against the concentration of the example compound, and the intensity data was fitted to yield an association constant for ARS binding.
(§2) The association constant for the binding between a target sugar compound (e.g., glucose) and a boronate compound was determined via the displacement of ARS bound to the example compounds. Triplicate wells of 10^-5 M ARS and 0.1M example compounds in 0.1M phosphate buffer, pH 7.4, were titrated in a 96-well plate against serial dilutions of the target sugar compound, ranging in concentration from 0-2.0 M at 25° C. The boronate-ARS-carbohydrate solution was incubated for 30-60 minutes at 25° C. and the intensity of each well was measured in a plate reader at excitation wavelength 468 nm and emission wavelength 585 nm. Changes in intensity were plotted against concentration of the target sugar compound, and the data was fitted to a one-site competition equation:
(§3) [formula] to yield an association constant for the boronate compound-target sugar compound binding event.

[2] = Alizarin Red S (ARS) displacement assay, binding to fructose
Procedure: as §1, §2, §3

[3] = Alizarin Red S (ARS) displacement assay, binding to lactate
Procedure: as §1, §2, §3

[4] = Example 7 (heterobifunctional, boroxole) compared to Example 5

Row | Structure (SMILES) | Kd [1] [mM] | Kd [2] [mM] | Kd [3] [mM] | increase in affinity to glucose [1, 4] [fold] | increase in affinity to fructose [2, 4] [fold] | increase in affinity to lactate [3, 4] [fold]
1 | CS(=O)(=O)c1ccc(B(O)O)cc1C(=O)N[C@@H]1C[C@H](C(N)=O)N(C(=O)c2cc(B(O)O)ccc2S(C)(=O)=O)C1 [Example 1, (3-((2R,4R)-4-(5-borono-2-(methylsulfonyl)benzamido)-2-carbamoylpyrrolidine-1-carbonyl)-4-(methylsulfonyl)phenyl)boronic acid] | 25.2 | 1.7 | 38.3 |  |  | 
2 | O=C(O)CNC(=O)[C@@H]1C[C@H](NC(=O)c2ccc3c(c2)B(O)OC3)CN1C(=O)c1ccc2c(c1)B(O)OC2 [Example 2, ((2S,4S)-1-(1-hydroxy-1,3-dihydrobenzo[c][1,2]oxaborole-6-carbonyl)-4-(1-hydroxy-1,3-dihydrobenzo[c][1,2]oxaborole-6-carboxamido)pyrrolidine-2-carbonyl)glycine] | 3.7 | 2 | 58 |  |  | 
3 | O=C(O)CNC(=O)[C@@H]1C[C@H](NC(=O)c2ccc3c(c2)B(O)OC3)CN1C(=O)c1cc(B(O)O)ccc1[N+](=O)[O-] [Example 3, ((2S,4S)-1-(5-borono-2-nitrobenzoyl)-4-(1-hydroxy-1,3-dihydrobenzo[c][1,2]oxaborole-6-carboxamido)pyrrolidine-2-carbonyl)glycine] | 14 | 1.9 | 48 |  |  | 
4 | NC(=O)[C@H](CNC(=O)c1ccc2c(c1)B(O)OC2)NC(=O)c1cc(B(O)O)cc([N+](=O)[O-])c1 [Example 4, (S)-(3-((1-amino-3-(1-hydroxy-1,3-dihydrobenzo[c][1,2]oxaborole-6-carboxamido)-1-oxopropan-2-yl)carbamoyl)-5-nitrophenyl)boronic acid] | 13 | 5.6 |  |  |  | 
5 | NC(=O)[C@H](CNC(=O)c1cc(B(O)O)ccc1[N+](=O)[O-])NC(=O)c1cc(B(O)O)ccc1[N+](=O)[O-] [Example 5, (S)-(3-((1-amino-3-(5-borono-2-nitrobenzamido)-1-oxopropan-2-yl)carbamoyl)-4-nitrophenyl)boronic acid] | 29.4 | 11 |  |  |  | 
6 | NC(=O)[C@H](CNC(=O)c1cc2c(c(C(F)(F)F)c1)COB2O)NC(=O)c1cc(B(O)O)cc([N+](=O)[O-])c1 [Example 6, (S)-(3-((1-amino-3-(1-hydroxy-4-(trifluoromethyl)-1,3-dihydrobenzo[c][1,2]oxaborole-6-carboxamido)-1-oxopropan-2-yl)carbamoyl)-5-nitrophenyl)boronic acid] | 3.4 | 4.6 | 74.1 |  |  | 
7 | NC(=O)[C@H](CNC(=O)c1ccc2c(c1)B(O)OC2)NC(=O)c1cc(B(O)O)ccc1[N+](=O)[O-] [Example 7, (S)-(3-((1-amino-3-(J-hydroxy-1,3-dihydrobenzo[c][1,2]oxaborole-6-carboxamido)-1-oxopropan-2-yl)carbamoyl)-4-nitrophenyl)boronic acid] | 4.4 | 1.2 | 39.5 | ~7 | ~7 | ~7
8 | NC(=O)[C@H](CNC(=O)c1sccc1B(O)O)NC(=O)c1sccc1B(O)O [Example 8, (S)-(2-((1-amino-3-(3-boronothiophene-2-carboxamido)-1-oxopropan-2-yl)carbamoyl)thiophen-3-yl)boronic acid] | 32 | 2.2 |  |  |  | 
9 | O=C(O)CN(CCCNC(=O)c1cc(B(O)O)cc([N+](=O)[O-])c1)C(=O)c1cc(B(O)O)cc([N+](=O)[O-])c1 [Example 9, N-(3-(3-borono-5-nitrobenzamido)propyl)-N-(3-borono-5-nitrobenzoyl)glycine] | 6.5 | 10.6 |  |  |  | 
10 | O=C(O)CN(CCCCNC(=O)c1cc(B(O)O)cc([N+](=O)[O-])c1)C(=O)c1cc(B(O)O)cc([N+](=O)[O-])c1 [Example 10, N-(4-(3-borono-5-nitrobenzamido)butyl)-N-(3-borono-5-nitrobenzoyl)glycine] | 99.8 | 11.5 |  |  |  | 
11 | O=C(O)CN(CCCCCNC(=O)c1cc(B(O)O)cc([N+](=O)[O-])c1)C(=O)c1cc(B(O)O)cc([N+](=O)[O-])c1 [Example 11, N-(5-(3-borono-5-nitrobenzamido)pentyl)-N-(3-borono-5-nitrobenzoyl)glycine] |  | 24.7 |  |  |  | 
12 | O=C(O)CN(Cc1ccc(CNC(=O)c2cc(B(O)O)cc([N+](=O)[O-])c2)cc1)C(=O)c1cc(B(O)O)cc([N+](=O)[O-])c1 [Example 12, N-(4-((3-borono-5-nitrobenzamido)methyl)benzyl)-N-(3-borono-5-nitrobenzoyl)glycine] |  | 12.1 |  |  |  | 
13 | O=C(O)CN(Cc1cccc(CNC(=O)c2cc(B(O)O)cc([N+](=O)[O-])c2)c1)C(=O)c1cc(B(O)O)cc([N+](=O)[O-])c1 [Example 13, N-(3-((3-borono-5-nitrobenzamido)methyl)benzyl)-N-(3-borono-5-nitrobenzoyl)glycine] |  | 17.8 |  |  |  | 
14 | NC(=O)CN(C(=O)c1ccc2c(c1)B(O)OC2)[C@@H]1CCCC[C@H]1NC(=O)c1ccc2c(c1)B(O)OC2 [Example 14, N-(2-amino-2-oxoethyl)-1-hydroxy-N-((1R,2R)-2-(1-hydroxy-1,3-dihydrobenzo[c][1,2]oxaborole-6-carboxamido)cyclohexyl)-1,3-dihydrobenzo[c][1,2]oxaborole-6-carboxamide] | 1.64 | 5.88 | 59.8 |  |  | 
15 | O=C(O)CN(C(=O)c1ccc(F)c(B(O)O)c1)[C@H]1CCCC[C@H]1NC(=O)c1ccc(F)c(B(O)O)c1 [Example 18, N-((1S,2R)-2-(3-borono-4-fluorobenzamido)cyclohexyl)-N-(3-borono-4-fluorobenzoyl)glycine] | 95.4 | 6.04 | 67.5 |  |  | 

More lines, now with the values ahead:

Row | Kd [1] [mM] | Kd [2] [mM] | Kd [3] [mM] | increase in affinity to glucose [1, 4] [fold] | increase in affinity to fructose [2, 4] [fold] | increase in affinity to lactate [3, 4] [fold] | Structure (SMILES)
16 | 59 | 4.8 | 51.6 |  |  |  | O=C(O)CN(CCCNC(=O)c1ccc(F)c(B(O)O)c1)C(=O)c1ccc(F)c(B(O)O)c1 [Example 15, N-(3-(3-borono-4-fluorobenzamido)propyl)-N-(3-borono-4-fluorobenzoyl)glycine]
17 | 88.6 | 6.5 | 53.5 |  |  |  | O=C(O)CN(Cc1cccc(CNC(=O)c2ccc(F)c(B(O)O)c2)c1)C(=O)c1ccc(F)c(B(O)O)c1 [Example 17, N-(3-((3-borono-4-fluorobenzamido)methyl)benzyl)-N-(3-borono-4-fluorobenzoyl)glycine]
18 | 43 | 2.87 | 31 |  |  |  | O=C(O)CN(CCCNC(=O)c1ccc(B(O)O)c(F)c1)C(=O)c1ccc(B(O)O)c(F)c1 [Example 19, N-(3-(4-borono-3-fluorobenzamido)propyl)-N-(4-borono-3-fluorobenzoyl)glycine]
19 | 30.4 | 5.86 | 70.3 |  |  |  | O=C(O)CN(CCCCCNC(=O)c1ccc(B(O)O)c(F)c1)C(=O)c1ccc(B(O)O)c(F)c1 [Example 20, N-(S-(4-borono-3-fluorobenzamido)pentyl)-N-(4-borono-3-fluorobenzoyl)glycine]
20 |  | 13.5 |  |  |  |  | O=C(O)CN(Cc1ccc(CNC(=O)c2ccc(B(O)O)c(F)c2)cc1)C(=O)c1ccc(B(O)O)c(F)c1 [Example 21, N-(4-((4-borono-3-fluorobenzamido)methyl)benzyl)-N-(4-borono-3-fluorobenzoyl)glycine]
21 | 16.1 | 9.52 | 97.3 |  |  |  | O=C(O)CN(Cc1cccc(CNC(=O)c2ccc(B(O)O)c(F)c2)c1)C(=O)c1ccc(B(O)O)c(F)c1 [Example 22, N-(3-((4-borono-3-fluorobenzamido)methyl)benzyl)-N-(4-borono-3-fluorobenzoyl)glycine]
22 | 93.7 | 9.36 |  |  |  |  | O=C(O)CN(Cc1cccc(CNC(=O)c2cc(Br)cc(B(O)O)c2)c1)C(=O)c1cc(Br)cc(B(O)O)c1 [Example 24, N-(3-((3-borono-5-bromobenzamido)methyl)benzyl)-N-(3-borono-5-bromobenzoyl)glycine]
